From patent US6576620B2, “Method of identifying partial adenosine A1 receptor agonists” (CV Therapeutics, Inc., priority 1999, dated 2003)
Like-named read-outs stand apart in the source and are kept apart here.

Legend:
A1-AdoR [1] = target: T1, A1-AdoR (Rattus norvegicus, UniProt P25099); experiment: 3H-CPX binding to rat adipocyte membranes; details: for IC50: IC50 to reduce the binding of 3H-CPX; for Ki: Ki for reduction of 3H-CPX binding
T1 sequence (P25099 1-326): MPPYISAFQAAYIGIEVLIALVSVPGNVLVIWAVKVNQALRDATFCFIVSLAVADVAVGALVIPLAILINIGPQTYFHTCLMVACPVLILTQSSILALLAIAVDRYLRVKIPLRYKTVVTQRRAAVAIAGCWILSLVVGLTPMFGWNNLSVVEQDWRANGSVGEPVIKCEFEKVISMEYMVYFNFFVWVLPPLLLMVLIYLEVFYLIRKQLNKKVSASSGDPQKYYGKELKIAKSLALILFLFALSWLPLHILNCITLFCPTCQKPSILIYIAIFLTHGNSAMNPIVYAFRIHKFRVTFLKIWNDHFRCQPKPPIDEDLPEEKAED
Description: (§1) Membranes containing A1-AdoRs for use in radioligand binding assays were prepared from guinea pig cerebral cortex or from rat isolated epididymal adipocytes. Freshly-isolated guinea pig brain cortical tissue was homogenized in ice-cold 50 mM Tris-HCl buffer (pH 7.4) using six up and down strokes of an ice-chilled Potter-Elvejhem tissue grinder and a motor-driven teflon™ pestle. A crude membrane preparation was isolated by centrifugation of the homogenate at 15,000×g for 20 min at 4° C. The membrane pellet was resuspended in fresh Tris buffer and pelleted again by centrifugation. The final membrane pellet was suspended in Tris buffer to achieve a protein content of 1.1-1.4 mg/ml and divided into aliquots for storage at −80° C. until needed for assays. Adipocytes were isolated from 10 epididymal fat pads and suspended in a homogenization buffer (pH 7.3) containing 250 mM sucrose, 20 mM HEPES, 1 mM EDTA, 10 μg/ml leupeptin, and 5 μg/ml pepstatin. Cells were homogenized using an ice-chilled Potter-Elvehjem tissue grinder and a motor-driven teflon™ pestle. Cell membranes were separated from fat by centrifugation of the homogenate for 5 min at 1000×g at 4° C. The infranate below the fat cake was removed and placed in a centrifuge tube. Membranes were collected by centrifugation of the infranate for 30 min at 20,000×g at 4° C. Membranes were resuspended in buffer (pH 7.1 at room temperature) containing 154 mM NaCl, 10 mM MgCl2, 50 mM HEPES, 1 mM EDTA, 5 μg/ml leupeptin, 5 μg/ml pepstatin, and 5 U/ml adenosine deaminase, and stored as aliquots in liquid nitrogen until needed for assays.
(§2) The binding affinity of experimental agonists high and low affinity states of the A1-ADOR was determined. […] The presence of GTP reduces the availability of high affinity binding sites on the GPCR. Thus, the method allows for a discrimination between high and low binding affinities.
(§3) After a 3 hour incubation at room temperature. the reaction was terminated by diluting the samples with ice-cold Tris buffer and immediate collection of membranes onto glass-fiber filters (Schleicher and Schuell, Keene, N.H.) by vacuum filtration using a cell harvester (Brandel, Gaithersburg, Md.). Filters were washed quickly three times with ice-cold buffer to remove unbound radioligand. Filter discs containing trapped membranes and bound radioligand were placed in 4 ml of scintillation cocktail and radioactivity of samples was quantified using a liquid scintillation counter. […] Results of radioligand binding assays were analyzed using the Prism program from GraphPad (San Diego, Calif.).

[2] = system: guinea pig isolated heart; experiment: Coronary conductance, isolated heart; details: for EC50: Cavia porcellus; for maximal increase of coronary conductance: this study, Compound 6 at 100 μM
Description: Coronary perfusion pressure (CPP) was measured using a pressure transducer, connected to the aortic cannula via a T-connector positioned approximately 3 cm above the heart. Coronary perfusion pressure was monitored throughout the experiment and recorded either on a chart recorder (Gould Recorder 2200S) or a computerized recording system (PowerLab/4S, ADInstruments Pty Ltd, Australia). Only hearts with CPP ranging from 60 to 85 mmHg (in the absence of drugs) were used in the study. Coronary conductance (in ml/min/mmHg) was calculated as the ratio between coronary perfusion rate (10 ml/min) and coronary perfusion pressure.
Guinea pigs (Hartley) of either sex weighing 300-350 g were anaesthetized with methoxyflurane and killed by decapitation. The chest was cut open and the heart was removed quickly and rinsed in ice-cold modified Krebs-Henseleit (K-H) solution. The contents of the modified K-H solution were (in mM): NaCl 117.9, KCl 4.8, CaCl2 2.5, MgSO2 1.18, KH2PO4 1.2, Na2 EDTA 0.5, ascorbic acid 0.14, dextrose 5.5, pyruvic acid (sodium salt) 2.0, and NaHCO3 25. The K-H solution was continuously gassed with 95% oxygen and 5% CO2, and the pH was adjusted to a value of 7.4. To perfuse the heart by the Langendorff method, the transected aorta was slid onto a glass cannula and secured by a ligature. Retrograde perfusion of the aorta was initiated immediately at a constant flow of 10 ml min-′ with modified K-H solution warmed to 36.0±0.5° C. A side port in the cannula was used to connect the perfusion line to a Gould pressure transducer for measurement of coronary perfusion pressure. Coronary perfusion pressure was continuously recorded on a strip chart (Gould RS3400, Cleveland, Ohio) throughout each experiment. Coronary conductance (in ml min^−1 mmHg^−1) was calculated as the ratio of coronary flow (10 ml min^−1) to perfusion pressure (mm Hg). To facilitate the exit of fluid from the left ventricle, the leaflets of the mitral valve were trimmed with fine spring-handled scissors. When appropriate, hearts were paced at a constant rate using external electrodes. After completion of dissection and instrumentation (see below) for measurement of either atrial rate, stimulus-to-His bundle (S-H) interval, monophasic action potentials, or coronary perfusion pressure, each heart was allowed to equilibrate for 20-40 min before the administration of drug. Experimental interventions were always preceded and followed by control measurements. Criteria for exclusion of hearts from study were (1) a coronary perfusion pressure of less than 50 mm Hg, (2) absence of a stable coronary perfusion pressure during the equilibration period, and (3) inability to pace a heart at a constant rate throughout an experiment.

A1-AdoR [3] = target: T2, A1-AdoR (Cavia porcellus, UniProt P47745); experiment: 3H-CPX binding to guinea pig forebrain membranes; details: for IC50: IC50 to reduce the binding of 3H-CPX
T2 sequence (P47745 1-326): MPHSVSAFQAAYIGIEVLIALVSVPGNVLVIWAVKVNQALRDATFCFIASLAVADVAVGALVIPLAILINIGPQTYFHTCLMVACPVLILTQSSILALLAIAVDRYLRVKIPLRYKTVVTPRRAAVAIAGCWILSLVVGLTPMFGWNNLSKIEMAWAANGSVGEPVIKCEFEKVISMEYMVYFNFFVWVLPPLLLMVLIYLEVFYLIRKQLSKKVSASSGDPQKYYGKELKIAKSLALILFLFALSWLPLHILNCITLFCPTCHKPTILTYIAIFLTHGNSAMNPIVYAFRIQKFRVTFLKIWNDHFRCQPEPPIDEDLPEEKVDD
Description: as §1, §2, §3

[4] = Ki for reduction of 3H-CPX binding, absence of GTP

## OC[C@H]1O[C@@H](n2cnc3c(NC4CCCC4)ncnc32)[C@H](O)[C@@H]1O [CPA, N^6-cyclopentyladenosine, reference compound]
A1-AdoR [1]; absence of GTP
  Hill slope: 0.88
A1-AdoR [1]; adipocyte membranes
  difference of IC50 in absence and presence of GTP: 10 fold
A1-AdoR [1]; presence of 1 mM GTP
  Hill slope: 1.0
[2]; CPA maximal, control 0.16±0.01
  coronary conductance: 0.33±0.01 ml min^−1 mmHg-^1
[2]; read-out: concentration of half-maximal increase of coronary conductance
  EC50: 0.071 µM
[2]
  maximal increase of coronary conductance: 0.17±0.02 ml min^−1 mmHg^−1
A1-AdoR [3]; absence of GTP
  IC50: 0.0025 µM
  Hill slope: 1.2
A1-AdoR [3]; presence of 1 mM GTP
  IC50: 0.028 µM
  Hill slope: 0.53
A1-AdoR [3]; [4]
  Ki: 0.0017 µM
A1-AdoR [3]; Ki, high affinity sites, presence of 1 mM GTP, 2-site binding model
  Ki: 0.0104 µM
A1-AdoR [3]; forebrain membranes
  difference of IC50 in absence and presence of 1 mM GTP: 11 fold
A1-AdoR [3]; presence of 1 mM GTP, 2-site binding model
  sites having a high affinity: 73%
A1-AdoR [3]; read-out: Ki, low affinity sites, presence of 1 mM GTP, 2-site binding model
  Ki: 0.882 µM

## CNC(=O)OC[C@H]1OC(n2cnc3c(N[C@@H]4CCOC4)ncnc32)[C@H](O)[C@@H]1O (stereo partly drawn) [Compound 6 of Example 2, [(5-{6-[((3R)oxolan-3-yl)amino]purin-9-yl}(3 S,2R,4R)-3,4-dihydroxyoxolan-2-yl)methoxy]-N-methylcarboxamide]
A1-AdoR [1]; absence of GTP
  IC50: 0.18 µM
  Ki: 0.062 µM
  Hill slope: 0.87
A1-AdoR [1]; presence of 1 mM GTP
  IC50: 9.5 µM
  Ki: 3.3 µM
  Hill slope: 1.0
A1-AdoR [1]; presence of 1 mM GTP and 0.1 mM N-ethylmaleimide
  IC50: 15 µM
A1-AdoR [1]; adipocyte membranes
  IC50 with GTP and N-ethylmaleimide relative to GTP alone: 1.6 fold
A1-AdoR [1]; rat, adipocyte membranes
  difference of IC50 in absence and presence of GTP: 53 fold
[2]; 10 μM compound, control 0.17±0.01
  coronary conductance: 0.185±0.01 ml min^−1 mmHg^−1
[2]; 100 μM compound, control 0.17±0.01
  coronary conductance: 0.26±0.02 ml min^−1 mmHg^−1
[2]; estimate may be falsely low, limited solubility, read-out: concentration of half-maximal response (EC50), increase of coronary conductance
  EC50: 31 µM
[2]; concentrations ≦10 μM
  effect on coronary conductance: did not significantly change the coronary conductance
[2]
  maximal increase of coronary conductance: 0.09±0.01 ml min^−1 mmHg^−1
A1-AdoR [3]; presence of 1 mM GTP
  IC50: 2.9 µM
  Hill slope: 0.99
A1-AdoR [3]; [4]
  Ki: 1.8 µM
A1-AdoR [3]; Ki for reduction of 3H-CPX binding, presence of 1 mM GTP
  Ki: 2.1 µM
A1-AdoR [3]; absence of GTP
  Hill slope: 0.79
